Assay results as given in US12702660B2, “Method for treating cancer with an oral dosage form of an estrogen receptor-alpha inhibitor” (Eisai R&D Management Co., Ltd., priority 2019, dated 2026).
Where two headings read alike, the source gives them in different places.

Experiment: Plasma PK of H3B-6545 capsules in fasted patients, phase 1 dose escalation
Format: in vivo, human
Conditions: for Vd / Vd/F / Tmax / AUC(0-inf) / Cmax / half-life / AUC(0-t): female, human, plasma, oral; for Vd / Vd/F / AUC(0-inf) / Cmax / half-life / AUC(0-t): Geometric Mean (GeoCV %); for Vd: read-out: Vss; for Vd/F: read-out: Vz/F
Description: Blood samples were collected at the planned time points from each patient and centrifuged. The plasma portion of each sample was then transferred to a K2EDTA tube, which was then shipped to a bioanalytical lab for concentration measurement using LC-MS/MS. The concentration data were then analyzed using Phoenix® WinNonlin software to obtain PK parameters. The obtained PK parameters were further summarized using analytical software.
Blood samples (approximately 5 mL each) were collected from human patients pre-dose and at various hourly time points post-dose. Plasma concentrations of H3B-6545 were determined using a validated high-performance liquid chromatography/tandem mass spectrometry (LC-MS/MS) method. The lower limit of quantification was 0.100 ng/mL.
The PK Analysis Set included subjects who received H3B-6545 drug product in capsules or tablets and had sufficient evaluable plasma concentration data to derive at least 1 primary PK parameter in each treatment. Plasma concentrations of H3B-6545 (as free base) were tabulated and summarized at each nominal time using descriptive statistics (number of subjects, arithmetic mean with standard deviation [SD], coefficient of variation [CV %], geometric mean, median, minimum, and maximum) as appropriate. Individual and mean (±SD) plasma concentration-time profiles were provided for each treatment.
Pharmacokinetic parameters of H3B-6545 were calculated using noncompartmental methods, using an appropriate model for plasma data and extravascular administration. The PK parameters included, but were not limited to, area under the curve to the time of the last quantifiable concentration (AUC0-t), maximum concentration (Cmax), and time at which the maximum concentration occurred (tmax). If data permitted, the area under the plasma concentration-time curve extrapolated to infinity (AUC0-inf), terminal elimination half-life (t1/2), apparent total body clearance (CL/F), total systemic clearance after oral administration at steady state (CLss/F), apparent volume of distribution during the terminal phase (Vz/F), apparent steady-state volume of distribution (Vss), accumulation ratio for Cmax (RCmax) and accumulation ratio of AUC0-24 (RAUC) were also derived.
Methods were used to analyze whether H3B-6545 inactivates both wild-type and mutant ERα by targeting cysteine 530 and enforcing a unique antagonist conformation. Methods: Women with locally advanced or metastatic HR+BC are treated (tx) with H3B-6545 drug product administered once daily orally by capsule over a 28 day cycle after progression on at least one hormonal therapy and at least one additional therapy/regimen. Dose escalation uses a 3+3 design with the option to backfill previously cleared doses and allows for intrapatient dose escalation. This example explored the safety, pharmacokinetics and pharmacodynamics of H3B-6545 in women with HR+BC to identify a recommended subsequent dose for testing.
• H3B-6545 administered once daily orally over a 28 day cycle. • Dose escalation using a standard 3+3 study design using dose cohorts of 100, 200, 300, 450, and 600 mg QD. • Patients allowed to backfill previously cleared doses. • Intra-patient dose escalation allowed after completion of Cycle 3. Results (as of Apr. 20, 2019) Patient Population: • 46 patients were treated with H3B-6545 at doses of 100 to 600 mg QD. • 42 (91.3%) patients received a prior CDK4/6 inhibitor and 32 (69.6%) prior fulvestrant. • 30 (65.2%) patients received ≥3 prior anti-cancer therapy lines in the advanced/metastatic setting.
The clinical trial of Example 3 was continued and PK evaluations (of this Example 4) were made at a later date on the basis of a larger patient population. The summary of Tables 1 in Analysis of Pharmacokinetic (PK) of Capsules in Fasted Patients and 2 show PK parameters and profiles of human patients receiving capsules of H3B-6545 drug product prepared as in Example 1. […]

[1] = 100 mg, Cycle 1 Day 1, 100 mg QD capsules, fasted patients
[2] = 100 mg, Cycle 1 Day 15, 100 mg QD capsules, fasted patients
[3] = 200 mg, Cycle 1 Day 1, 200 mg QD capsules, fasted patients
[4] = 200 mg, Cycle 1 Day 15, 200 mg QD capsules, fasted patients
[5] = 300 mg, Cycle 1 Day 1, 300 mg QD capsules, fasted patients
[6] = 300 mg, Cycle 1 Day 15, 300 mg QD capsules, fasted patients
[7] = 450 mg, Cycle 1 Day 1, 450 mg QD capsules, fasted patients
[8] = 450 mg, Cycle 1 Day 15, 450 mg QD capsules, fasted patients
[9] = 600 mg, Cycle 1 Day 1, 600 mg QD capsules, fasted patients
[10] = 600 mg, Cycle 1 Day 15, 600 mg QD capsules, fasted patients

## CN(C)C(=O)/C=C/CNCCOc1ccc(/C(=C(/CC(F)(F)F)c2ccccc2)c2ccc3[nH]nc(F)c3c2)cn1 [H3B-6545, (E)-N,N-dimethyl-4-[2-[5-[(Z)-4,4,4-trifluoro-1-(3-fluoro-1H-indazol-5-yl)-2-phenylbut-1-enyl]pyridin-2-yl]oxyethylamino]but-2-enamide]
[1]
  Vd: 713 L
  Vd/F: 689 L
100 mg, Cycle 1 Day 1, 100 mg QD capsules, fasted patients, Median (Min, Max)
  Tmax: 3.05 h
[2]
  AUC(0-inf): 2.95 µg·h/mL
  Cmax: 0.287 µg/mL
  half-life: 11.5 h
  Vd: 679 L
  Vd/F: 731 L
100 mg, Cycle 1 Day 15, 100 mg QD capsules, fasted patients, read-out: AUC0-24
  AUC(0-t): 2.56 µg·h/mL
100 mg, Cycle 1 Day 15, 100 mg QD capsules, fasted patients, read-out: AUC0-t
  AUC(0-t): 2.59 µg·h/mL
100 mg, Cycle 1 Day 15, 100 mg QD capsules, fasted patients, Median (Min, Max)
  Tmax: 2 h
[3]
  AUC(0-inf): 5.27 µg·h/mL
  Cmax: 0.473 µg/mL
  half-life: 9.73 h
  Vd: 567 L
  Vd/F: 532 L
200 mg, Cycle 1 Day 1, 200 mg QD capsules, fasted patients, read-out: AUC0-24
  AUC(0-t): 4.76 µg·h/mL
200 mg, Cycle 1 Day 1, 200 mg QD capsules, fasted patients, read-out: AUC0-t
  AUC(0-t): 4.81 µg·h/mL
200 mg, Cycle 1 Day 1, 200 mg QD capsules, fasted patients, Median (Min, Max)
  Tmax: 5 h
[4]
  AUC(0-inf): 7.95 µg·h/mL
  Cmax: 0.605 µg/mL
  half-life: 10.1 h
  Vd: 456 L
  Vd/F: 455 L
200 mg, Cycle 1 Day 15, 200 mg QD capsules, fasted patients, read-out: AUC0-24
  AUC(0-t): 6.87 µg·h/mL
200 mg, Cycle 1 Day 15, 200 mg QD capsules, fasted patients, read-out: AUC0-t
  AUC(0-t): 6.91 µg·h/mL
200 mg, Cycle 1 Day 15, 200 mg QD capsules, fasted patients, Median (Min, Max)
  Tmax: 2.17 h
[5]
  AUC(0-inf): 11.1 µg·h/mL
  Cmax: 0.898 µg/mL
  half-life: 9.58 h
  Vd: 416 L
  Vd/F: 374 L
300 mg, Cycle 1 Day 1, 300 mg QD capsules, fasted patients, read-out: AUC0-24
  AUC(0-t): 9.48 µg·h/mL
300 mg, Cycle 1 Day 1, 300 mg QD capsules, fasted patients, read-out: AUC0-t
  AUC(0-t): 9.53 µg·h/mL
300 mg, Cycle 1 Day 1, 300 mg QD capsules, fasted patients, Median (Min, Max)
  Tmax: 4 h
[6]
  AUC(0-inf): 12.7 µg·h/mL
  Cmax: 1.2 µg/mL
  half-life: 8.52 h
  Vd: 373 L
  Vd/F: 348 L
300 mg, Cycle 1 Day 15, 300 mg QD capsules, fasted patients, read-out: AUC0-24
  AUC(0-t): 12 µg·h/mL
300 mg, Cycle 1 Day 15, 300 mg QD capsules, fasted patients, read-out: AUC0-t
  AUC(0-t): 12.1 µg·h/mL
300 mg, Cycle 1 Day 15, 300 mg QD capsules, fasted patients, Median (Min, Max)
  Tmax: 4 h
[7]
  AUC(0-inf): 23 µg·h/mL
  Cmax: 1.5 µg/mL
  half-life: 11 h
  Vd: 343 L
  Vd/F: 311 L
450 mg, Cycle 1 Day 1, 450 mg QD capsules, fasted patients, read-out: AUC0-24
  AUC(0-t): 16.2 µg·h/mL
450 mg, Cycle 1 Day 1, 450 mg QD capsules, fasted patients, read-out: AUC0-t
  AUC(0-t): 16.2 µg·h/mL
450 mg, Cycle 1 Day 1, 450 mg QD capsules, fasted patients, Median (Min, Max)
  Tmax: 4 h
[8]
  AUC(0-inf): 17.4 µg·h/mL
  Cmax: 1.42 µg/mL
  half-life: 9.81 h
  Vd: 489 L
  Vd/F: 466 L
450 mg, Cycle 1 Day 15, 450 mg QD capsules, fasted patients, read-out: AUC0-24
  AUC(0-t): 14 µg·h/mL
450 mg, Cycle 1 Day 15, 450 mg QD capsules, fasted patients, read-out: AUC0-t
  AUC(0-t): 14.1 µg·h/mL
450 mg, Cycle 1 Day 15, 450 mg QD capsules, fasted patients, Median (Min, Max)
  Tmax: 4 h
[9]
  AUC(0-inf): 32.9 µg·h/mL
  Cmax: 2.05 µg/mL
  half-life: 13.1 h
  Vd: 366 L
  Vd/F: 344 L
600 mg, Cycle 1 Day 1, 600 mg QD capsules, fasted patients, read-out: AUC0-24
  AUC(0-t): 22.4 µg·h/mL
600 mg, Cycle 1 Day 1, 600 mg QD capsules, fasted patients, read-out: AUC0-t
  AUC(0-t): 22.3 µg·h/mL
600 mg, Cycle 1 Day 1, 600 mg QD capsules, fasted patients, Median (Min, Max)
  Tmax: 4 h
[10]
  AUC(0-inf): 39.7 µg·h/mL
  Cmax: 1.68 µg/mL
  half-life: 21.8 h
  Vd: 1100 L
  Vd/F: 1030 L
600 mg, Cycle 1 Day 15, 600 mg QD capsules, fasted patients, read-out: AUC0-24
  AUC(0-t): 18.4 µg·h/mL
600 mg, Cycle 1 Day 15, 600 mg QD capsules, fasted patients, read-out: AUC0-t
  AUC(0-t): 18.7 µg·h/mL
600 mg, Cycle 1 Day 15, 600 mg QD capsules, fasted patients, Median (Min, Max)
  Tmax: 4 h
As of 10 Dec. 2018, 100 to 450 mg/day capsules
  Tmax: 2 to 4 h
As of Apr. 20, 2019, 100 to 600 mg QD
  Tmax: 2 to 4 h
Once daily dosing
  plasma concentration, C1D1 versus C1D15: similar
